In US10987357B2, “Aerosolized fluoroquinolones and uses thereof” (Horizon Orphan, LLC, priority 2005, dated 2021):
≈ marks a conversion by molar mass, not a printed value. Read-outs that look alike come from different tables or passages of the source.

Legend:
PAM1032 [1] = assay type: cell-based, P. aeruginosa; conditions: PAM1032, genotype nalB
Source text: (§1) . Those were chosen based on what is known about conditions and growth of PA in a cystic fibrosis (CF) lung. Four isogenic strains of P. aeruginosa were used for these experiments (Table 2).

physchem [2] = assay: physchem
Source text: The buffers used were HCL (pH 1,2), acetate (pH 4,5), phosphate (pH 6,7,8) and borate (9,10).

PAM1020 [3] = assay: microbe, parasite or virus in culture; assay type: cell-based, P. aeruginosa; conditions: Pseudomonas aeruginosa, read-out: Levofloxacin MIC
Source text: as §1

[4] = 28-day GLP inhalation toxicology study
[5] = Tolerability of aerosol levofloxacin in a healthy human subject
[6] = in vivo
[7] = tested on: P. aeruginosa strain PAM 1723; assay: Mouse lung infection efficacy model; conditions: Pseudomonas aeruginosa, PAM1723, in Mus musculus
Description: The inoculum is adjusted to ca. 5×10^6 CFU/ml by correlation of absorbance at 600 nm with predetermined plate counts. […] On day 5, mice are infected by an intratracheal instillation of 0.05 ml of inoculum while under isoflurane anesthesia (5% isoflurane in oxygen running at 4 L/min). […] Mice are sacrificed 1 and 4 hours after treatment, their lungs removed, homogenized and plated to determine colony counts.

PAM1032 [8] = assay type: cell-based, P. aeruginosa
Description: Overnight cultures were grown aerobically overnight in Mueller-Hinton Broth and next diluted 1:10000 in MEM which filled growth flasks to the very top. Cultures were grown without shaking to OD˜0.3 at 37° C. […] Other than decreased aeration, antibiotic concentration, time of exposure, and determination of viable cell counts were the same as in Experiments 1 and 2.

[9] = tested on: colony biofilms of PAM1032; assay type: cell-based, P. aeruginosa; conditions: 10 minutes of exposure
Description: The viable cell numbers were enumerated by plating serially diluted samples (in duplicates) on MHB plates by the drop (10 ul) plating method.

physchem [10] = assay: physchem; remark: listed apart in the source
Description: This solution was titrated with 1 N HCl. Measured aliquots of HCl were added and the pH recorded after each addition. Titration was continued till a pH of 1.
Vep volume of titrant added till the equivalence point; [OH^−]=hydroxide ion concentration=Kw/[…]; [H^+]=hydronium ion concentration=10^−pH.

PAM1582 [11] = assay type: cell-based, Pseudomonas aeruginosa; conditions: for reduction in bacterial counts: half-life 10 minutes
Description: (§2) The in vitro pharmacodynamic model consists of a central (analogous “serum” compartment) and peripheral (“extravascular”) compartment. The peripheral compartments consist of artificial capillary units (Unisyn, Hopkinton, Mass.) arranged in series with the central compartment. Each capillary unit has a bundle of small semi-permeable fibers with a molecular size retention of ca. 10,000 MW to allow passage of nutrients but not bacteria. The entire system is set up in a dry heat incubator adjusted to 37° C.
(§3) Both the central and peripheral compartments were filled with Mueller-Hinton broth. Each peripheral compartment (capillary unit and tubing) contained ca. 23 ml of growth medium.
(§4) Bacteria were introduced into the peripheral chamber of the model and allowed to grow for 2 hours prior to the first “dose” of drug. Drug doses were administered into the central compartment and pumped to peripheral chambers by a peristaltic pump. Concentrations in the model declined according to first order elimination (half-life) by dilution of the central compartment with drug free medium introduced by an additional peristaltic pump adjusted to the desired clearance.
(§5) Samples (0.3 ml) were collected from peripheral compartments at various intervals for determination of drug and bacterial concentrations. Samples were collected from the peripheral compartments and assayed for drug concentrations by HPLC.
(§6) Of the resulting dilution, 2.3 ml was injected into each peripheral chamber of the hollow-fiber bioreactors (Unisyn, Hopkinton, Mass.).

[12] = 4 day non-GLP ascending dose inhalation toxicology study; conditions: 24 hours after the last dose
PAM1032 [13] = assay: In vitro pharmacodynamic (hollow fiber) model of infection; assay type: cell-based, Pseudomonas aeruginosa; conditions: for reduction in bacterial counts: half-life 10 minutes
Description: as §2, §3, §4, §5, §6

PAM1020 [14] = assay: Time-kill, exponentially grown cells (Experiment 1); assay type: cell-based, P. aeruginosa; conditions: 64 ug/ml ([…] MIC), 10 minutes
Description: At appropriate times, 1 ml of each exposure culture was centrifuged for 2 minutes, the pellet was washed twice with 1 ml of drug-free MHB, and re-suspended in 1 ml of MHB. The viable cell numbers were enumerated by plating serially diluted samples (in duplicates) on MHB plates by the drop (10 ul) plating method. The limit of detection was 100 CFU/ml. Killing is reported as the log reduction calculated relative to cell count at the time of initiation of antibiotic exposure. Relative antibiotic concentrations (relative to MIC of the corresponding strains) are used.

[15] = in vivo; cited from earlier work
[16] = 4 day GLP inhalation toxicology study
[17] = Rat pharmacokinetic model (IV vs microspray aerosol, intratracheal); assay type: in vivo, rats; conditions: 10 mg/kg; for AUC: epithelial lining fluid (ELF)
Description: […] Blood samples are taken at various times over 3 hours to determine the plasma pharmacokinetic parameters. […] The plasma and tissue concentrations are determined by an HPLC method and the data are then fit using WinNonlin.

PAM1582 [18] = assay: Levofloxacin MIC of hollow fiber test strain; assay type: cell-based; conditions: Pseudomonas aeruginosa, read-out: Levofloxacin MIC
Source text: Pseudomonas aeruginosa PAM1032 and PAM1582. […]

For `C[C@H]1COc2c(N3CCN(C)CC3)c(F)cc3c(=O)c(C(=O)O)cn1c23` [Levofloxacin, levofloxacin], the “Levofloxacin MIC” value (PAM1032 [1]) was 1 µg/mL, the “Levofloxacin MIC” value (PAM1032 [1]; listed as levofloxacin) was 1.0 µg/mL and the pKa (physchem [2]) was 5.91. For the same compound, the MIC (PAM1020 [3]) was 0.25 µg/mL (≈ 0.692 µM), the survival ([4]; 28 day treatment period) was “all animals survived” and the necropsy ([4]; after the last dose) was “dose related squamous cell hyperplasia of the larynx”. The “tolerability of hypotonic solutions for inhalation” value ([5]; concentrations greater than 10 mg/ml) was “poorly tolerated”, the overall tolerability ([5]; first test) was “well tolerated” and the acute tolerability ([5]; second test: 4 ml of 18.75 mg/mL, Aerogen Small, estimated RDD 35 mg) was “very comparable to the first test”. For the same compound, the “adverse effects in the throat, airway or lungs” value ([5]; third test: 4 mL of 18.75 mg/mL, PARI Large, estimated RDD ~55 mg) was “no adverse effects in the throat, airway or lungs”, the “Aerosol Tolerability and Taste” value [6] was “chemical taste, somewhat bitter,” and the log reduction at 25 mg/kg ([7]; 1 h, read-out: DeltaLOG CPU 1 hr, route IT, dose 25 mg/kg, 1 hr post-drug administration) was 2.48. For the same compound, the log reduction at 25 mg/kg ([7]; 4 h, read-out: DeltaLOG CPU 4 hr, route IT, dose 25 mg/kg, 4 hr post-drug administration) was 1.45, the log reduction at 25 mg/kg ([7]; ip, 1 h, read-out: DeltaLOG CPU 1 hr, route IP, dose 25 mg/kg, 1 hr post-drug administration) was 1.4 and the “stronger killing at longer exposure intervals (difference)” value (PAM1032 [8]) was “less than 1 log”. The “maximum observed bactericidal activity against biofilms” value [9] was 99%, the “acidic pKa” value (physchem [10]) was about 1.6 and the pKb (physchem [10]) was 7.7. The pKa (physchem [10]; acidic pKa) was under 2, the pKa (physchem [10]; pKa) was 6.3 and the pKa (physchem [10]; pKa of the basic site as stated in text) was about 6.8. The bacterial reduction (PAM1582 [11]) was “up to 99.99%”, the “reduction in bacterial counts” value (PAM1582 [11]; Cmax 600 ug/ml) was 3 log and the “reduction in bacterial counts” value (PAM1582 [11]; Cmax 1000 ug/ml) was 4 log. For the same compound, the bacterial reduction (PAM1582 [11]; listed as levofloxacin) was “up to 99.999%”, the necropsy [12] was “did not show any findings” and the “time to maximum bactericidal effect” value (PAM1032 [13]; Cmax 600 ug/ml) was 30 min. The “reduction in bacterial counts” value (PAM1032 [13]; Cmax 600 ug/ml) was 5 log, the “time to maximum bactericidal effect” value (PAM1032 [13]; Cmax 1000 ug/ml) was at most 10 min and the “reduction in bacterial counts” value (PAM1032 [13]; Cmax 1000 ug/ml) was 5 log. For the same compound, the bacterial reduction (PAM1032 [13]; Cmax of both 600 and 1000 ug/ml, strain with MIC of 1 ug/ml) was at most 99.9999%, the “maximum killing, decrease in viable cell counts” value (PAM1020 [14]) was 5.5 log and the “penetration into lung tissues” value [15] was “penetrates well into lung tissues”. The survival ([16]; 4 day treatment period) was “all animals survived”, the necropsy ([16]; after the last dose) was “did not show any findings” and the “F, % from Lung vs. IV” value ([17]; IT) was 86%. The AUC ([17]; rat, inhaled or intranasal, IT) was 12100 ng·h/mL, the AUC ([17]; rat, iv) was 10500 ng·h/mL and the half-life ([17]; rat, in vivo, inhaled or intranasal, IT, read-out: Serum t1/2 (converted)) was 24 min. It also gave an AUC(0-inf) ([17]; rat, serum, inhaled or intranasal, IT) of 3280 ng·h/mL and an MIC (PAM1582 [18]) of 32 µg/mL.
